{"source": "patent US6297235A", "about": "“Triazolopyridazine derivatives for treating anxiety and enhancing cognition” (Merck Sharp & Dohme Ltd., priority 1997, dated 2001)", "origin": "cited, not measured here", "key": {"[1]": {"conditions": "reported by McNamara and Skelton, Psychobiology, 21:101-108"}, "[2]": {"conditions": "in vivo"}}}
{"smiles": "COC(=O)c1cc2c(cn1)[nH]c1ccccc12", "note": "[β-CCM]", "values": [{"measurement": "spatial learning in the Morris watermaze", "setting": "[1]", "value": "enhanced spatial learning"}, {"measurement": "proconvulsant or convulsant effect", "setting": "[2]", "value": "proconvulsant or convulsant"}]}
